The target in one experiment is T1, PolθΔL (Homo sapiens, UniProt O75417, C1895G/DEL1861-1870/DEL1873-1894/DEL1918-1929/DEL2146-2157/DEL2161-2173/DEL2261-2287/DEL2291-2305/DEL2513-2514/DEL2518-2524/F2289G/F2526G/L1930G/L2158G/L2516G/M2525G/P1932S/P1933G/R2175G/R2306G/S1934G/V1931G).
T1 construct: The gene encoding Polθ-pol (residues 1819–2590) was cloned into a pSUMOstar vector; 6xHis (N, cleaved yes); SUMO (N); made in house; host or cells: E. coli BL21(DE3)
Briefly: PolθΔL primer extension. The format is biochemical.

For another experiment, the system named is DLD1 BRCA2 -/- cells. Briefly: Western blot γ-H2AX phosphorylation and PARP cleavage. The class given is cell-based. The conditions noted are these: versus parental. As to the method: Cells were harvested using—cell scraper and washed in phosphate-buffered saline (PBS), then lysed in 1 x RIPA Lysis and Extraction Buffer (Thermo Scientific #89901) containing Halt™ Protease and Phosphatase Inhibitor Cocktail (Thermo Scientific #1861281). Protein concentration was measured using Pierce™ BCA Protein Assay Kit (Thermo Scientific #23225). The proteins were separated by electrophoresis using 4–20% Mini-PROTEAN® TGX™ Precast Protein Gels (Bio-Rad #4561096) and transferred to Immuno Blot PVDF Membrane (Bio-Rad #1620177). Membranes were blocked using 5%-milk-TBST (or 5%-BSA-TBST for phospho-proteins) for 1 h at room temperature and washed with TBST prior to antibody incubation. Primary antibodies were incubated overnight at 4 °C in 1%-milk-TBST (or 2%-BSA-TBST for phospho-proteins). γ-H2AX (p Ser139) was detected using antibody (NOVUS #NB100-384) diluted 1:2000. Cleaved PARP was detected using antibody (Cell Signaling #9546) diluted 1:2000. Gapdh was detected using Gapdh (14C10) rabbit monoclonal antibody (Cell Signaling Technology #2118) diluted 1:4000. Membranes were washed with TBST prior to secondary antibody incubation for 1 h at room temperature using respective Goat anti-Rabbit IgG (H + L) HRP (Invitrogen #31466) or Goat anti-Mouse IgG (H + L) HRP (Invitrogen #31430)–tagged Secondary Antibody diluted 1:5000 in 2%-milk-TBST. […]

A further experiment concerns the target T2, Fl-Polθ:DNA/DNA complex (Homo sapiens, UniProt O75417).
T2 construct: recombinant human full-length Polθ (Fl-Polθ); made in house
Briefly: EcoRI endonuclease protection assay. The class given is biochemical. As to the method:
(§1) EcoRI and KpnI endonucleases assay: 25 nM 5’-^32P radiolabeled primer-template DNA Sc15-EcoRI (5’-^32P LM3-EcoRI/LM4-EcoRI) or Sc19-KpnI (5’-^32P LM11-Kpn/LM12-Kpn) in reaction buffer (25 mM Tris-HCl pH 7.5, 10 mM MgCl2, 10% glycerol, 0.1 mg/mL BSA, 0,01% igepal, 1 mM DTT) were incubated in the presence or in the absence of 50 nM Polθ-pol, 100 μM ddCTP, and 10 μM inhibitors, as indicated, for 5 min at room temperature. Next, 0.08 U/μL EcoRI or KpnI together with 500 nM “trapping” DNA Sc14 (RP559/RP702) were added and incubated for further 0–40 min at 30 °C as indicated. 10 nM PolθΔcen and FL-Polθ and 25 nM Sc15-EcoRI and Sc19-Kpn were probed with 0.04 U/μL EcoRI or KpnI (both from New England Biolabs) using the same conditions. Reactions were stopped by addition of formamide loading buffer with 50 mM EDTA, resolved in denaturing 20% urea PAAG and analyzed using Typhoon PhosphorImager (GE Amersham). Quantification was done in ImageQuant TL software. All quantified experiments were performed in triplicates and plotted as mean with ± s.d using GraphPad Prism 9 software.

In another experiment the test system is PolθΔcen:DNA/DNA complex. Briefly: EcoRI endonuclease protection assay. The class given is biochemical. The settings on record: for i (%), normalized to 100%, ave(%) / i (%), replicates: 14 nt i; for i+1 (%) normalized to 100%, ave(%) / i+1 (%), replicates: 15 nt i+1. The protocol:
as §1

[1] abbreviates: Eco+PolqDcen+ddC+RTx152, 2.5min.

Where “and” joins values, the source holds several entries; their conditions need not be identical. Equal values may be shown once.

This note sets out measurements from publication PMC10997755, “Discovery of a small-molecule inhibitor that traps Polθ on DNA and synergizes with PARP inhibitors” (Nature Communications, 2024).
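Wherever i (%), replicates is given: i is primer-template DNA within pre-catalytic complexes.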
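Wherever i+1 (%) (15 nt), replicates #1-#3 is given: i+1 is one-nucleotide extended DNA within post-catalytic complexes.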
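Wherever i+1 (%), replicates is given: i+1 is one-nucleotide extended DNA within post-catalytic complexes.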

T2 sequence (O75417 whole entry, one chain of several): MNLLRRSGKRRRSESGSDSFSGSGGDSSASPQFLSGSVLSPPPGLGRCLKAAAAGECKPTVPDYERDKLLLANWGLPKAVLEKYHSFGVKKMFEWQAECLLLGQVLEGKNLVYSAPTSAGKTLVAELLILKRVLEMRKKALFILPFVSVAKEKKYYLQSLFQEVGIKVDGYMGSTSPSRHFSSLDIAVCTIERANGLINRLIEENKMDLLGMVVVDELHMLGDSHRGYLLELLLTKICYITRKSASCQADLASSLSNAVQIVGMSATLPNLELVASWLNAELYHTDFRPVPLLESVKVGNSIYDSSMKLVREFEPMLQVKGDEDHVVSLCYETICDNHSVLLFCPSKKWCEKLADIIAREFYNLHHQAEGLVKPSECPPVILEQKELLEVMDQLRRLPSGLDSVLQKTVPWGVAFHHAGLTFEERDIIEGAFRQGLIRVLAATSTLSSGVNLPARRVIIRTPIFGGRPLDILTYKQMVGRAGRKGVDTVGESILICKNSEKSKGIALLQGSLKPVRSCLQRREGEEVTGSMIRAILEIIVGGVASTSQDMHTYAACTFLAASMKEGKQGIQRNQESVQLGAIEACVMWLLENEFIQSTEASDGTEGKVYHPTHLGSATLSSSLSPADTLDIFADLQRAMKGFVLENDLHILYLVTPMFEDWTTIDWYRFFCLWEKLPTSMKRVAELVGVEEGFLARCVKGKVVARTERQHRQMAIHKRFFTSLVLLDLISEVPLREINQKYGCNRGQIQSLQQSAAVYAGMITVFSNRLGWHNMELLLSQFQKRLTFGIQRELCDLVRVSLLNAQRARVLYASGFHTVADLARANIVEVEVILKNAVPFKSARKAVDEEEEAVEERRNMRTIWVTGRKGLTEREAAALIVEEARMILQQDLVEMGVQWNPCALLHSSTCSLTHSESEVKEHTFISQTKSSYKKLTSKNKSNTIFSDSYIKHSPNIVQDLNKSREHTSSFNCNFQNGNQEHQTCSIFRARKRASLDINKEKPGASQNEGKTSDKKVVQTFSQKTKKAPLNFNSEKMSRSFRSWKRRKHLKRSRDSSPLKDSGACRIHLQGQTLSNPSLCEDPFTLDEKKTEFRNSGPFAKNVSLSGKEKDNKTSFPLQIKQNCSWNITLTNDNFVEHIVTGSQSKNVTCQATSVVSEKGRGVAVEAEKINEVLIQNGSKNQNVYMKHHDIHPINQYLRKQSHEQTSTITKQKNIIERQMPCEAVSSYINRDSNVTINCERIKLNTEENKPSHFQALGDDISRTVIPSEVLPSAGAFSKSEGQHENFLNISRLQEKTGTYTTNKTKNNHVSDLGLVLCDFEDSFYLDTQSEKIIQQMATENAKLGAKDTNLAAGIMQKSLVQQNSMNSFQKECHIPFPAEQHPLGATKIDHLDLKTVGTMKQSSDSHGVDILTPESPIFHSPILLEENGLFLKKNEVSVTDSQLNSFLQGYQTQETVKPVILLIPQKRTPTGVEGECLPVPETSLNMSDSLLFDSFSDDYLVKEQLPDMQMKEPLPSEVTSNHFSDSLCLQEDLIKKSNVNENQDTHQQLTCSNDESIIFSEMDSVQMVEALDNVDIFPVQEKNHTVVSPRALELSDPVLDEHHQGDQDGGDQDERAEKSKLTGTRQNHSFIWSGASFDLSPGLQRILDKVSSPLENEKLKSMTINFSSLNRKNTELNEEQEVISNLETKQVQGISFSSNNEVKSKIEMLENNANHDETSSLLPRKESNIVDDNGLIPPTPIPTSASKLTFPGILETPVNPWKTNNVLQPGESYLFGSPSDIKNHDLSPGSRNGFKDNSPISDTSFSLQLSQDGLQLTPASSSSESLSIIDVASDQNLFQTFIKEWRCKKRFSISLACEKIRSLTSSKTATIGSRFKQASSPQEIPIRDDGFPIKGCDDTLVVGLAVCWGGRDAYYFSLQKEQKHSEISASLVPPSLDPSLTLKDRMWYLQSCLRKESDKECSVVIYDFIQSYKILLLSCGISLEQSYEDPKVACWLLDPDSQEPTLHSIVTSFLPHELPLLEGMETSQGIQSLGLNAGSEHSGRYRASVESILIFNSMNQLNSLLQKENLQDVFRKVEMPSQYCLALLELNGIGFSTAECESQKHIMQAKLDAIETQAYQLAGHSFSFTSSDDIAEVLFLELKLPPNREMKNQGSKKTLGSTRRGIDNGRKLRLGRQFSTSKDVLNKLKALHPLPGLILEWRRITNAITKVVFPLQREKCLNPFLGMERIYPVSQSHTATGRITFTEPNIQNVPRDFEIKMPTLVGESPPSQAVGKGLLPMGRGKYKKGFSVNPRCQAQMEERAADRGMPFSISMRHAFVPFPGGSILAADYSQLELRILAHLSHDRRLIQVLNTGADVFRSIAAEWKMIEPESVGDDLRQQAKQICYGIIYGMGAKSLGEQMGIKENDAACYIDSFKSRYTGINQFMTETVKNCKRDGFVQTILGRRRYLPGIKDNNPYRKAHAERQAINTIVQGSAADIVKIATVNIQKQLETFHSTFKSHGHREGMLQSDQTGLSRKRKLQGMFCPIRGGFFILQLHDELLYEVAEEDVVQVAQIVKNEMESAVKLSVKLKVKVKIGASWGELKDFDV
T1 sequence (O75417 with tags, fused parts or gaps with the stated changes): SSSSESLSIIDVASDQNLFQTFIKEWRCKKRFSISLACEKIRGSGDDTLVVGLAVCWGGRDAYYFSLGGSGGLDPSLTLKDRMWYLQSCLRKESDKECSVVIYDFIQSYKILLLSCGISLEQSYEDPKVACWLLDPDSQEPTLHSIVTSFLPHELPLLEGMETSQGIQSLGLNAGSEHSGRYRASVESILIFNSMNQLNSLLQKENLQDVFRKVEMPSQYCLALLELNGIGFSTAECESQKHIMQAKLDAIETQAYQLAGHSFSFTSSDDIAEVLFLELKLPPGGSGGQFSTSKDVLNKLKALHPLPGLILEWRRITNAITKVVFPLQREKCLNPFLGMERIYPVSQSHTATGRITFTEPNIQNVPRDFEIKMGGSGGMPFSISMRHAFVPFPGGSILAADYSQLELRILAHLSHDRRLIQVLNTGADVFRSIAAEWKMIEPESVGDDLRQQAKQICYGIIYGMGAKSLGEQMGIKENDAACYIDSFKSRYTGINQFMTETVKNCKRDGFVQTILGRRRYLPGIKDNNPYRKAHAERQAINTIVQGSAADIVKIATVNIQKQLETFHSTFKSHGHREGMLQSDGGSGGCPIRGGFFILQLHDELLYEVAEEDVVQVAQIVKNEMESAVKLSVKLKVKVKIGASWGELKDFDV

With `CN(C(=O)Oc1ccc(C(F)(F)F)cc1C(F)(F)F)c1ccc(F)cc1` [MC160385], on PolθΔL, the “inhibition of PolθΔL primer extension” value is listed as “inhibits”.

Consider `CN(C(=O)Oc1c(N2CCN(CCO)C2=O)cc(C(F)(F)F)cc1C(F)(F)F)c1ccc(F)cc1` [RTx-161], for which the PARP cleavage entry with DLD1 BRCA2 -/- cells is “selectively induced PARP cleavage”.

As to `CN1CCN(c2cc(C(F)(F)F)cc(C(F)(F)F)c2OC(=O)N(C)c2ccc(F)cc2)C1=O` [RTx-152], the “EcoRI cleavage %, ave” value on Fl-Polθ:DNA/DNA complex (Eco+FL+ddC+RTx152, 2.5min) came out at 15.4%; at Fl-Polθ:DNA/DNA complex (Eco+FL+ddC+RTx152, 5min), 27.7%; on Fl-Polθ:DNA/DNA complex (Eco+FL+ddC+RTx152, 10min) it was 38.7%; with PolθΔcen:DNA/DNA complex (setting [1]), 9.7%; in the experiment on PolθΔcen:DNA/DNA complex (Eco+PolqDcen+ddC+RTx152, 5min), 14.0%; with PolθΔcen:DNA/DNA complex (Eco+PolqDcen+ddC+RTx152, 10min), 16.7%. For the same compound, the “EcoRI cleavage %, replicates #1-#3” value at Fl-Polθ:DNA/DNA complex (Eco+FL+ddC+RTx152, 2.5min) was 16.1% and 15.5% and 14.7%; at Fl-Polθ:DNA/DNA complex (Eco+FL+ddC+RTx152, 5min) it was 28.7% and 27.4% and 27.0%; at Fl-Polθ:DNA/DNA complex (Eco+FL+ddC+RTx152, 10min), 39.6% and 39.0% and 37.5%. Besides, the “i (%) (14 nt), replicates #1-#3” value is 45.9% and 45.3% and 45.1% at Fl-Polθ:DNA/DNA complex (FL+ddC+152, 2.5min); 32.7% and 32.3% and 32.8% at Fl-Polθ:DNA/DNA complex (FL+ddC+152, 5min); 19.6% and 20.0% and 17.7% at Fl-Polθ:DNA/DNA complex (FL+ddC+152, 10min). The “i (%), normalized to 100%, ave(%)” value at Fl-Polθ:DNA/DNA complex (FL+ddC+152, 2.5min) is recorded as 100.0%; on Fl-Polθ:DNA/DNA complex (FL+ddC+152, 5min), 71.7%; on Fl-Polθ:DNA/DNA complex (FL+ddC+152, 10min), 42.0%; with PolθΔcen:DNA/DNA complex (PolqDcen+ddC+152, 2.5 min), 100.0%; with PolθΔcen:DNA/DNA complex (PolqDcen+ddC+152, 5 min) it was 86.1%; with PolθΔcen:DNA/DNA complex (PolqDcen+ddC+152, 10 min), 66.5%. Further, the “i+1 (%) (15 nt), replicates #1-#3” value at Fl-Polθ:DNA/DNA complex (FL+ddC+152, 2.5min) is 24.5% and 25.2% and 24.4%; at Fl-Polθ:DNA/DNA complex (FL+ddC+152, 5min) it was 24.7% and 27.0% and 24.6%; on Fl-Polθ:DNA/DNA complex (FL+ddC+152, 10min), 27.5% and 27.2% and 25.6%. The “i+1 (%) normalized to 100%, ave(%)” value worked out at 100.0% at Fl-Polθ:DNA/DNA complex (FL+ddC+152, 2.5min); 103.0% on Fl-Polθ:DNA/DNA complex (FL+ddC+152, 5min); 108.3% on Fl-Polθ:DNA/DNA complex (FL+ddC+152, 10min); 100.0% in the experiment on PolθΔcen:DNA/DNA complex (PolqDcen+ddC+152, 2.5 min); 111.1% in the experiment with PolθΔcen:DNA/DNA complex (PolqDcen+ddC+152, 5 min); 137.8% in the experiment on PolθΔcen:DNA/DNA complex (PolqDcen+ddC+152, 10 min). Besides, the “post-catalytic complexes (i + 1), EcoRI cleavage” value on Fl-Polθ:DNA/DNA complex (Fl-Polθ) is on record as “fully resistant to EcoRI cleavage”. Moreover, the “EcoRI cleavage %, replicates” value was 11.0% and 8.0% and 10.0% with PolθΔcen:DNA/DNA complex (setting [1]); 17.0% and 12.0% and 13.0% in the experiment on PolθΔcen:DNA/DNA complex (Eco+PolqDcen+ddC+RTx152, 5min); 21.0% and 14.0% and 15.0% in the experiment with PolθΔcen:DNA/DNA complex (Eco+PolqDcen+ddC+RTx152, 10min). For the same compound, the “i (%), replicates” value with PolθΔcen:DNA/DNA complex (PolqDcen+ddC+152, 2.5 min) is 50.3% and 44.4% and 42.8%; with PolθΔcen:DNA/DNA complex (PolqDcen+ddC+152, 5 min), 40.2% and 38.5% and 39.7%; in the experiment with PolθΔcen:DNA/DNA complex (PolqDcen+ddC+152, 10 min), 33.3% and 25.6% and 32.6%. Besides, the “i+1 (%), replicates” value with PolθΔcen:DNA/DNA complex (PolqDcen+ddC+152, 2.5 min) was 20.4% and 24.4% and 22.1%; in the experiment with PolθΔcen:DNA/DNA complex (PolqDcen+ddC+152, 5 min) it was 23.8% (2×) and 26.6%; with PolθΔcen:DNA/DNA complex (PolqDcen+ddC+152, 10 min), 25.8% and 38.6% and 27.7%.
